Test results from patent US11807644B2 (PMV Pharmaceuticals, Inc., priority 2020, dated 2023).

Target: T1, recombinant His-tag Y220C p53 DBD protein (Homo sapiens, UniProt P04637, Y220C)
T1 construct: recombinant His-tag Y220C p53 DBD protein (amino acids #˜94-312)
Experiment: In vitro DNA binding activity assay (TR-FRET): binding of His-tag Y220C p53 DBD to biotin-labeled consensus DNA
Format: biochemical
Conditions: SC150 = concentration to increase DNA binding by […], His-tag Y220C p53 DBD, biotin-labeled consensus DNA

**Q.** Which “Y220C SC150 (μM)” value does the source give for `CN1CC[C@@H](Nc2cccc3c2cc(-c2noc(C(=O)NCc4ccccc4)n2)n3CC(F)(F)F)[C@@H](F)C1` [Compound 544B, N-benzyl-3-(4-{[(3S,4R)-3-fluoro-1-methylpiperidin-4-yl]amino}-1-(2,2,2-trifluoroethyl)-1H-indol-2-yl)-1,2,4-oxadiazole-5-carboxamide] here?
**A.** Its value is “** (** = 0.1 μM ≤ SC150 < 0.5 μM)”.

**Q.** With `CN1CC[C@@H](Nc2cccc3c2cc(-c2nc(CNC(=O)c4ccccc4)no2)n3CC(F)(F)F)[C@@H](F)C1` (racemic) [Compound 276B, (+/−)-N-{[5-(4-{[(3R,4S)-3-fluoro-1-methylpiperidin-4-yl]amino}-1-(2,2,2-trifluoroethyl)-1H-indol-2-yl)-1,2,4-oxadiazol-3-yl]methyl}benzamide] as the compound, how does the “Y220C SC150 (μM)” value read?
**A.** The value was “* (* = 0 μM ≤ SC150 < 0.1 μM)”.

**Q.** How did the “Y220C SC150 (μM)” value turn out when `CN1CCC(Nc2cccc3c2cc(-c2nnc(CNC(=O)C4(F)CC4)s2)n3CC(F)(F)F)CC1` [Compound 31B, 1-fluoro-N-[(5-{4-[(1-methylpiperidin-4-yl)amino]-1-(2,2,2-trifluoroethyl)-1H-indol-2-yl}-1,3,4-thiadiazol-2-yl)methyl]cyclopropane-1-carboxamide] was run?
**A.** Its value is “** (** = 0.1 μM ≤ SC150 < 0.5 μM)”.

**Q.** For `CN1CC[C@@H](Nc2cccc3c2cc(-c2noc(CNc4nccc5sccc45)n2)n3CC(F)(F)F)[C@@H](F)C1` [Compound 457B, N-[(3S,4R)-3-fluoro-1-methylpiperidin-4-yl]-2-{5-[({thieno[3,2-c]pyridin-4-yl}amino)methyl]-1,2,4-oxadiazol-3-yl}-1-(2,2,2-trifluoroethyl)-1H-indol-4-amine], which “Y220C SC150 (μM)” value is on record?
**A.** The value was “* (* = 0 μM ≤ SC150 < 0.1 μM)”.

**Q.** With `COCC(C)n1cc(C(=O)NCc2nc(-c3cc4c(N[C@@H]5CCN(C)C[C@@H]5F)cccc4n3CC(F)(F)F)no2)cn1` (stereo partly drawn) [Compound 302B, N-{[3-(4-{[(3S,4R)-3-fluoro-1-methylpiperidin-4-yl]amino}-1-(2,2,2-trifluoroethyl)-1H-indol-2-yl)-1,2,4-oxadiazol-5-yl]methyl}-1-(1-methoxypropan-2-yl)-1H-pyrazole-4-carboxamide] as the compound, how does the “Y220C SC150 (μM)” value read?
**A.** The value was “* (* = 0 μM ≤ SC150 < 0.1 μM)”.

**Q.** `CC(C)(C)n1ccc(C(=O)NCc2nc(-c3cc4c(NC5CCn6nccc6C5)cccc4n3CC(F)(F)F)no2)c1` (centres unmarked) [Compound 332B, 1-tert-butyl-N-({3-[4-({4H,5H,6H,7H-pyrazolo[1,5-a]pyridin-5-yl}amino)-1-(2,2,2-trifluoroethyl)-1H-indol-2-yl]-1,2,4-oxadiazol-5-yl}methyl)-1H-pyrrole-3-carboxamide] was tested. Which “Y220C SC150 (μM)” value did it give?
**A.** Its value is “* (* = 0 μM ≤ SC150 < 0.1 μM)”.

**Q.** How did the “Y220C SC150 (μM)” value turn out when `CN1CC[C@@H](Nc2cccc3c2cc(-c2noc(CNC(=O)c4ccn(CC(F)F)c4)n2)n3CC(F)(F)F)[C@@H](F)C1` [Compound 250B, 1-(2,2-difluoroethyl)-N-{[3-(4-{[(3S,4R)-3-fluoro-1-methylpiperidin-4-yl]amino}-1-(2,2,2-trifluoroethyl)-1H-indol-2-yl)-1,2,4-oxadiazol-5-yl]methyl}-1H-pyrrole-3-carboxamide] was run?
**A.** The value was “* (* = 0 μM ≤ SC150 < 0.1 μM)”.

**Q.** With `CN1CC[C@@H](Nc2cccc3c2cc(-c2noc(CNC(=O)c4ccn(C5(C)COC5)c4)n2)n3CC(F)(F)F)[C@@H](F)C1` [Compound 386B, N-{[3-(4-{[(3S,4R)-3-fluoro-1-methylpiperidin-4-yl]amino}-1-(2,2,2-trifluoroethyl)-1H-indol-2-yl)-1,2,4-oxadiazol-5-yl]methyl}-1-(3-methyloxetan-3-yl)-1H-pyrrole-3-carboxamide] as the compound, how does the “Y220C SC150 (μM)” value read?
**A.** The value was “* (* = 0 μM ≤ SC150 < 0.1 μM)”.

**Q.** For `CCN1CC[C@@H](Nc2cccc3c2cc(-c2noc(CNC(=O)c4ccn(C5CCOC5)c4)n2)n3CC(F)(F)F)[C@@H](F)C1` (stereo partly drawn) [Compound 324B, N-{[3-(4-{[(3S,4R)-1-ethyl-3-fluoropiperidin-4-yl]amino}-1-(2,2,2-trifluoroethyl)-1H-indol-2-yl)-1,2,4-oxadiazol-5-yl]methyl}-1-(oxolan-3-yl)-1H-pyrrole-3-carboxamide], which “Y220C SC150 (μM)” value is on record?
**A.** Its value is “* (* = 0 μM ≤ SC150 < 0.1 μM)”.

**Q.** With `Cc1c[nH]c2cc(C(=O)NCc3nc(-c4cc5c(N[C@@H]6CCN(C)C[C@@H]6F)cccc5n4CC(F)(F)F)no3)ccc12` [Compound 274B, N-{[3-(4-{[(3S,4R)-3-fluoro-1-methylpiperidin-4-yl]amino}-1-(2,2,2-trifluoroethyl)-1H-indol-2-yl)-1,2,4-oxadiazol-5-yl]methyl}-3-methyl-1H-indole-6-carboxamide] as the compound, how does the “Y220C SC150 (μM)” value read?
**A.** The value was “* (* = 0 μM ≤ SC150 < 0.1 μM)”.

**Q.** For `CO[C@H]1C[C@H](n2ccc(C(=O)NCc3nc(-c4cc5c(N[C@@H]6CCN(C)C[C@@H]6F)cccc5n4CC(F)(F)F)no3)c2)C1` [Compound 449B, N-{[3-(4-{[(3S,4R)-3-fluoro-1-methylpiperidin-4-yl]amino}-1-(2,2,2-trifluoroethyl)-1H-indol-2-yl)-1,2,4-oxadiazol-5-yl]methyl}-1-[(1r,3r)-3-methoxycyclobutyl]-1H-pyrrole-3-carboxamide], which “Y220C SC150 (μM)” value is on record?
**A.** The value was “* (* = 0 μM ≤ SC150 < 0.1 μM)”.

**Q.** For `CN1CC[C@H](Nc2cccc3c2cc(-c2noc(CNC(=O)c4ccsc4)n2)n3CC(F)(F)F)[C@H](F)C1` [Compound 190B, N-{[3-(4-{[(3R,4S)-3-fluoro-1-methylpiperidin-4-yl]amino}-1-(2,2,2-trifluoroethyl)-1H-indol-2-yl)-1,2,4-oxadiazol-5-yl]methyl}thiophene-3-carboxamide], which “Y220C SC150 (μM)” value is on record?
**A.** Its value is “* (* = 0 μM ≤ SC150 < 0.1 μM)”.

**Q.** With `O=C(NCc1nc(-c2cc3c(NC4CCN(Cc5ccccc5)CC4)cccc3n2CC(F)(F)F)no1)C1CC1` [Compound 163B, N-[(3-{4-[(1-benzylpiperidin-4-yl)amino]-1-(2,2,2-trifluoroethyl)-1H-indol-2-yl}-1,2,4-oxadiazol-5-yl)methyl]cyclopropanecarboxamide] as the compound, how does the “Y220C SC150 (μM)” value read?
**A.** Its value is “* (* = 0 μM ≤ SC150 < 0.1 μM)”.

**Q.** With `CN1CC[C@@H](Nc2cccc3c2cc(-c2noc(CNC(=O)c4ccc5cc[nH]c5c4)n2)n3CC(F)(F)F)[C@@H](F)C1` [Compound 267B, N-{[3-(4-{[(3S,4R)-3-fluoro-1-methylpiperidin-4-yl]amino}-1-(2,2,2-trifluoroethyl)-1H-indol-2-yl)-1,2,4-oxadiazol-5-yl]methyl}-1H-indole-6-carboxamide] as the compound, how does the “Y220C SC150 (μM)” value read?
**A.** The value was “* (* = 0 μM ≤ SC150 < 0.1 μM)”.

**Q.** With `Cc1sccc1C(=O)NCc1nc(-c2cc3c(N[C@@H]4CCN(C)C[C@@H]4F)cccc3n2CC(F)(F)F)no1` [Compound 211B, N-{[3-(4-{[(3S,4R)-3-fluoro-1-methylpiperidin-4-yl]amino}-1-(2,2,2-trifluoroethyl)-1H-indol-2-yl)-1,2,4-oxadiazol-5-yl]methyl}-2-methylthiophene-3-carboxamide] as the compound, how does the “Y220C SC150 (μM)” value read?
**A.** Its value is “* (* = 0 μM ≤ SC150 < 0.1 μM)”.

**Q.** `CC(C)(C)n1ccc(C(=O)NCc2nc(-c3cc4c(N[C@@H]5CCOC[C@H]5F)cccc4n3CC(F)(F)F)no2)c1` [Compound 512B, 1-tert-butyl-N-{[3-(4-{[(3S,4R)-3-fluorooxan-4-yl]amino}-1-(2,2,2-trifluoroethyl)-1H-indol-2-yl)-1,2,4-oxadiazol-5-yl]methyl}-1H-pyrrole-3-carboxamide] was tested. Which “Y220C SC150 (μM)” value did it give?
**A.** Its value is “* (* = 0 μM ≤ SC150 < 0.1 μM)”.

**Q.** How did the “Y220C SC150 (μM)” value turn out when `CCN1CCC(Nc2cccc3c2cc(-c2noc(CNC(=O)C4CC4)n2)n3CC(F)(F)F)CC1` [Compound 168B, N-[(3-{4-[(1-ethylpiperidin-4-yl)amino]-1-(2,2,2-trifluoroethyl)-1H-indol-2-yl}-1,2,4-oxadiazol-5-yl)methyl]cyclopropanecarboxamide] was run?
**A.** The value was “* (* = 0 μM ≤ SC150 < 0.1 μM)”.

**Q.** With `CO[C@H]1CCCC[C@@H]1n1ccc(C(=O)NCc2nc(-c3cc4c(N[C@@H]5CCN(C)C[C@@H]5F)cccc4n3CC(F)(F)F)no2)c1` (relative stereo) [Compound 384B] as the compound, how does the “Y220C SC150 (μM)” value read?
**A.** Its value is “* (* = 0 μM ≤ SC150 < 0.1 μM)”.

**Q.** `CN1CC[C@@H](Nc2cccc3c2cc(-c2noc(CNC(=O)c4ccc5c(ccn5C)c4)n2)n3CC(F)(F)F)[C@@H](F)C1` [Compound 259B, N-{[3-(4-{[(3S,4R)-3-fluoro-1-methylpiperidin-4-yl]amino}-1-(2,2,2-trifluoroethyl)-1H-indol-2-yl)-1,2,4-oxadiazol-5-yl]methyl}-1-methyl-1H-indole-5-carboxamide] was tested. Which “Y220C SC150 (μM)” value did it give?
**A.** Its value is “* (* = 0 μM ≤ SC150 < 0.1 μM)”.

**Q.** Which “Y220C SC150 (μM)” value does the source give for `CN1CC[C@H](F)[C@H](Nc2cccc3c2cc(-c2noc(CNC(=O)c4ccn(C(C)(C)C)c4)n2)n3CC(F)(F)F)C1` (racemic) [Compound 389B, rac-1-tert-butyl-N-{[3-(4-{[(3R,4S)-4-fluoro-1-methylpiperidin-3-yl]amino}-1-(2,2,2-trifluoroethyl)-1H-indol-2-yl)-1,2,4-oxadiazol-5-yl]methyl}-1H-pyrrole-3-carboxamide] here?
**A.** Its value is “* (* = 0 μM ≤ SC150 < 0.1 μM)”.

**Q.** With `COc1cc(S(C)(=O)=O)ccc1NCc1nnc(-c2cc3c(N[C@@H]4CCN(C)C[C@@H]4F)cccc3n2CC(F)(F)F)s1` [Compound 62B, N-[(3S,4R)-3-fluoro-1-methylpiperidin-4-yl]-2-(5-{[(4-methanesulfonyl-2-methoxyphenyl)amino]methyl}-1,3,4-thiadiazol-2-yl)-1-(2,2,2-trifluoroethyl)-1H-indol-4-amine] as the compound, how does the “Y220C SC150 (μM)” value read?
**A.** The value was “* (* = 0 μM ≤ SC150 < 0.1 μM)”.

**Q.** `COc1ccc(C(=O)NCc2nnc(-c3cc4c(NC5CCN(C)CC5)cccc4n3CC(F)(F)F)s2)cc1` [Compound 63B, 4-methoxy-N-[(5-{4-[(1-methylpiperidin-4-yl)amino]-1-(2,2,2-trifluoroethyl)-1H-indol-2-yl}-1,3,4-thiadiazol-2-yl)methyl]benzamide] was tested. Which “Y220C SC150 (μM)” value did it give?
**A.** The value was “* (* = 0 μM ≤ SC150 < 0.1 μM)”.

Same assay, conditions: concentration to increase DNA binding by […], incubated at either 27° C. or 29° C. for 60 min

**Q.** `COC(=O)Nc1cccc(-c2cc3c(NC4CCS(=O)(=O)CC4)cccc3n2CC(F)(F)F)c1` [Compound 25A, methyl N-(3-{4-[(1,1-dioxo-1λ^6-thian-4-yl)amino]-1-(2,2,2-trifluoroethyl)-1H-indol-2-yl}phenyl)carbamate] was tested. Which “SC150 (μM)” value did it give?
**A.** Its value is “+++ (+++ = 5 μM ≤ SC150 < 10 μM)”.
